Where a SMILES comes first, the peptide text is derived from it. The star is where a group is joined. Dabcyl = CN(C)c1ccc(N=Nc2ccc(C(=O)*)cc2)cc1; EDANS = O=S(=O)(O)c1cccc2c(NCCN*)cccc12
Test system: Yersinia pestis cells lacking plague plasminogen activator gene
Type: cell-based

## CC[C@H](C)[C@H](NC(=O)[C@H](CCCNC(=N)N)NC(=O)[C@H](CCCNC(=N)N)NC(=O)c1ccc(N=Nc2ccc(N(C)C)cc2)cc1)C(=O)N[C@@H](CC(N)=O)C(=O)N[C@@H](CCCNC(=N)N)C(=O)N[C@@H](CCC(=O)NCCNc1cccc2c(S(=O)(=O)O)cccc12)C(N)=O [DABCYL-Arg-Arg-Ile-Asn-Arg-Glu-(EDANS)-NH2] (Dabcyl-RRINRE(EDANS)-NH2)
  fluorescence with Pla-negative mutant: low background fluorescence

— US9187523B2 (priority 2006, dated 2015)
